Values after ≈ are worked out from the molar mass of the structure shown.
Legend:
Assay type in all cases: functional
Pseudomonas aeruginosa [1] = experiment: Antimicrobial activity against Pseudomonas aeruginosa isolate U9-19005 producing metallo-beta-lactamase VIM2 by Etest
Pseudomonas aeruginosa [2] = experiment: Antimicrobial activity against Pseudomonas aeruginosa isolate PA66 producing metallo-beta-lactamase VIM4 by Etest
Pseudomonas aeruginosa [3] = experiment: Antimicrobial activity against Pseudomonas aeruginosa isolate AK5493 producing metallo-beta-lactamase VIM2 by Etest
Pseudomonas aeruginosa [4] = experiment: Antimicrobial activity against Pseudomonas aeruginosa isolate B4-25753 producing metallo-beta-lactamase VIM2 by Etest
Pseudomonas aeruginosa [5] = experiment: Antimicrobial activity against Pseudomonas aeruginosa isolate K34-73 producing metallo-beta-lactamase VIM4 by Etest
Pseudomonas aeruginosa [6] = experiment: Antimicrobial activity against Pseudomonas aeruginosa isolate K34-7 producing metallo-beta-lactamase VIM2 by Etest
Pseudomonas aeruginosa [7] = experiment: Antimicrobial activity against Pseudomonas aeruginosa isolate BU-20287 producing metallo-beta-lactamase VIM2 by Etest
Pseudomonas aeruginosa [8] = experiment: Antimicrobial activity against Pseudomonas aeruginosa isolate BU-43038 producing metallo-beta-lactamase VIM2 by Etest
Pseudomonas aeruginosa [9] = experiment: Antimicrobial activity against Pseudomonas aeruginosa isolate BU-36178 producing metallo-beta-lactamase VIM2 by Etest
Pseudomonas aeruginosa [10] = experiment: Antimicrobial activity against Pseudomonas aeruginosa isolate BNL-1681 producing metallo-beta-lactamase VIM2 by Etest
Pseudomonas aeruginosa [11] = experiment: Antimicrobial activity against Pseudomonas aeruginosa isolate OS-210 producing metallo-beta-lactamase VIM2 by Etest
Pseudomonas aeruginosa [12] = experiment: Antimicrobial activity against Pseudomonas aeruginosa isolate K44-24 producing metallo-beta-lactamase IMP14 by Etest
Pseudomonas aeruginosa [13] = experiment: Antimicrobial activity against Pseudomonas aeruginosa isolate K45-32 producing metallo-beta-lactamase VIM2 by Etest

| SMILES | MIC (Pseudomonas aeruginosa [1]) [µg/mL] | MIC (Pseudomonas aeruginosa [2]) [µg/mL] | MIC (Pseudomonas aeruginosa [3]) [µg/mL] | MIC (Pseudomonas aeruginosa [4]) [µg/mL] | MIC (Pseudomonas aeruginosa [5]) [µg/mL] | MIC (Pseudomonas aeruginosa [6]) [µg/mL] | MIC (Pseudomonas aeruginosa [7]) [µg/mL] | MIC (Pseudomonas aeruginosa [8]) [µg/mL] | MIC (Pseudomonas aeruginosa [9]) [µg/mL] | MIC (Pseudomonas aeruginosa [10]) [µg/mL] | MIC (Pseudomonas aeruginosa [11]) [µg/mL] | MIC (Pseudomonas aeruginosa [12]) [µg/mL] | MIC (Pseudomonas aeruginosa [13]) [µg/mL] |
| --- | --- | --- | --- | --- | --- | --- | --- | --- | --- | --- | --- | --- | --- |
| NCC[C@H](O)C(=O)N[C@@H]1C[C@H](N)[C@@H](O[C@H]2O[C@H](CN)[C@@H](O)[C@H](O)[C@H]2O)[C@H](O)[C@H]1O[C@H]1O[C@H](CO)[C@@H](O)[C@H](N)[C@H]1O [AMIKACIN] | 32 (≈ 54.6 µM) | 32 (≈ 54.6 µM) | 32 (≈ 54.6 µM) | 32 (≈ 54.6 µM) | 32 (≈ 54.6 µM) | 32 (≈ 54.6 µM) | 32 (≈ 54.6 µM) | 32 (≈ 54.6 µM) | 32 (≈ 54.6 µM) | 32 (≈ 54.6 µM) | 32 (≈ 54.6 µM) | 32 (≈ 54.6 µM) | 32 (≈ 54.6 µM) |
| O=C(O)C1=CC[C@@H]2CC(=O)N12 [CARBAPENEM] | > 32 | > 32 | > 32 | > 32 | > 32 | > 32 | > 32 | > 32 | > 32 | > 32 | > 32 | > 32 | > 32 |
| CO/N=C(\C(=O)N[C@@H]1C(=O)N2C(C(=O)[O-])=C(C[N+]3(C)CCCC3)CS[C@H]12)c1csc(N)n1 [CEFEPIME] | 32 (≈ 66.6 µM) | 32 (≈ 66.6 µM) | 32 (≈ 66.6 µM) | 32 (≈ 66.6 µM) | 32 (≈ 66.6 µM) | 32 (≈ 66.6 µM) | 32 (≈ 66.6 µM) | 32 (≈ 66.6 µM) | 32 (≈ 66.6 µM) | 32 (≈ 66.6 µM) | 32 (≈ 66.6 µM) | 32 (≈ 66.6 µM) | 32 (≈ 66.6 µM) |
| CC(C)(O/N=C(\C(=O)N[C@@H]1C(=O)N2C(C(=O)[O-])=C(C[n+]3ccccc3)CS[C@H]12)c1csc(N)n1)C(=O)O [CEFTAZIDIME] | 64 (≈ 117 µM) | 64 (≈ 117 µM) | 64 (≈ 117 µM) | 64 (≈ 117 µM) | 64 (≈ 117 µM) | 64 (≈ 117 µM) | 64 (≈ 117 µM) | 64 (≈ 117 µM) | 64 (≈ 117 µM) | 64 (≈ 117 µM) | 64 (≈ 117 µM) | 64 (≈ 117 µM) | 64 (≈ 117 µM) |
| O=C(O)c1cn(C2CC2)c2cc(N3CCNCC3)c(F)cc2c1=O [CIPROFLOXACIN] | 16 (≈ 48.3 µM) | 16 (≈ 48.3 µM) | 16 (≈ 48.3 µM) | 16 (≈ 48.3 µM) | 16 (≈ 48.3 µM) | 16 (≈ 48.3 µM) | 16 (≈ 48.3 µM) | 16 (≈ 48.3 µM) | 16 (≈ 48.3 µM) | 16 (≈ 48.3 µM) | 16 (≈ 48.3 µM) | 16 (≈ 48.3 µM) | 16 (≈ 48.3 µM) |
| NC[C@H]1O[C@H](O[C@H]2[C@H](O)[C@@H](O[C@H]3O[C@H](CO)[C@@H](O)[C@H](N)[C@H]3O)[C@H](N)C[C@@H]2N)[C@H](N)C[C@@H]1O [TOBRAMYCIN] | 32 (≈ 68.4 µM) | 32 (≈ 68.4 µM) | 32 (≈ 68.4 µM) | 32 (≈ 68.4 µM) | 32 (≈ 68.4 µM) | 32 (≈ 68.4 µM) | 32 (≈ 68.4 µM) | 32 (≈ 68.4 µM) | 32 (≈ 68.4 µM) | 32 (≈ 68.4 µM) | 32 (≈ 68.4 µM) | 32 (≈ 68.4 µM) | 32 (≈ 68.4 µM) |

From ChEMBL document CHEMBL1240351, “Molecular epidemiology of metallo-beta-lactamase-producing Pseudomonas aeruginosa isolates from Norway and Sweden shows import of international clones and local clonal expansion” (2010)
